We go through 4 compounds from patent publication US7371372B2, “Compositions comprising IMPDH inhibitors and uses thereof for treating HCV infection” (Vertex Pharmaceuticals Incorporated, priority 2004, dated 2008).

Converted amounts (≈) assume the structure as drawn. Read-outs that look alike come from different tables or passages of the source. Marks after values point to notes of the source that are not given here.

Data set [1] relates to peripheral blood lymphocytes (PBLs). Nature of the data set: anti-proliferative activity (IC50ap): inhibition of proliferation of peripheral blood lymphocytes. Format: cell-based. As to conditions: for IC50: Lymphocyte. The source says: Our algorithm predicts that there exists an optimal balance between the antiproliferative activity and the antiviral activity for ribavirin in combination with IFN. […] Per our algorithm described above, a “conversion factor” of 12.25 needs to be applied to the APQ to account for antiviral effects as distinct from the antiproliferative effects of ribavirin. Thus the corrected APQ (i.e. AAQ) for ribavirin ranges from 0.3 to 1.6.

A short description of data set [2]: anti-viral activity (IC50av). As to conditions: for IC50: read-out: IC50av. Format: cell-based.
Source text: The ratio of IC50av/IC50ap is the Conversion Factor (“CV”), useful in converting an anti-proliferative response into an anti-viral response.
The conditions of data set [3]: cited from earlier work; for Cmin: estimated from Brunet et al.
The subject of data set [4] is HCV. The note with it: 1000 mg BID with PEGASYS, cited from earlier work.
In data set [5] the test system is IMPDH. As to conditions: estimated from Brunet et al.; cited from earlier work.
Data set [6] concerns HCV. Nature of the data set: Interferon alpha 2b (INTRON A) and VX-497 in naive HCV patients, four week study (VX-497-003). The class given is in vivo, human. The note with it: for % HCV RNA drop: genotype 1 naive patients. The text has this:
Given the lower FQ for RBV in table 2 above, once again a surprising result of lower FQ giving better antiviral effects is seen.

Data set [7] is described as follows: plasma concentrations Cavg and Cmin of the IMPDH inhibitor in human. Format: in vivo. The text has this: An optimal composition according to the present invention comprises alpha-interferon or a derivative thereof, an IMPDH inhibitor and a pharmaceutical carrier, wherein said IMPDH inhibitor is present in said composition in an amount such that a ratio of Cavg/Cmin is between 1 to 10; • wherein: • Cavg is average steady-state plasma concentration produced by said IMPDH inhibitor in said human; and • Cmin is estimated trough concentration produced by said IMPDH inhibitor in said human.
Cavg is equal to AUC/T, wherein AUC is the area under the plasma concentration-time curve during a dosing interval of time T. Cavg and Cmin are readily determined by known techniques in the art. See, e.g., Gibaldi, M. and Perrier, D., Pharmacokinetics, 2nd Ed., Marcel Dekker, Inc. (1982); Khakoo, S. et al., Br. J. Clin. Pharmacol.46, pp. 563-570 (1998); Glue, P., Sem. Liver. Dis. 19, pp. 17-24 (1999).

For data set [8], the system named is HCV. The note with it: cited from earlier work; for sustained response (SR): IFN + ribavirin, two phase III trials; for HCV RNA drop: Ribavirin 600 mg BID with INTRON A, SR data from McHutchison and Poynard (1999).
The mark [9] stands for this setting: Ribavirin 200 mg BID, estimated from literature kinetics.
Where [10] appears, read: Ribavirin 400 mg BID, estimated from literature kinetics.

As for `COc1c(C)c2c(c(O)c1C/C=C(\C)CCC(=O)O)C(=O)OC2` [MPA, mycophenolic acid], the IC50 was 32 ng/mL in data set [1] (in vitro, read-out: IC50ap (ng/mL) in vitro) and 0.122 µg/mL (≈ 0.381 µM) in data set [2] (anti-viral activity, micromolar IC50 converted to ng/mL using molecular weight of 320). Besides, the Cmin is 1630 ng/mL in data set [3] (MPA 500 mg BID), 1400 ng/mL in data set [3] (MPA 750 mg BID) and 2060 ng/mL in data set [3] (MPA 1000 mg BID). For the same compound, the Cavg is 3163 ng/mL in data set [3] (MPA 500 mg BID, from Brunet et al.); 3425 ng/mL in data set [3] (MPA 750 mg BID, from Brunet et al.); 3869 ng/mL in data set [3] (MPA 1000 mg BID, median AUC(0-t)/dosing interval from Brunet et al.). Moreover, the “% HCV RNA drop” value is recorded as 31^a, % in data set [4] (non-responders to REBETRON with 90% genotype 1 patients) and 72^b % in data set [4] (relapsers on REBETRON with 79% genotype 1 patients). The “IC50ap (ng/mL) in vivo” value in data set [5] is listed as 10800 ng/mL (≈ 33.7 µM).

For `COc1cc(NC(=O)Nc2cccc(CNC(=O)O[C@H]3CCOC3)c2)ccc1-c1cnco1` [VX-497], the IC50ap in data set [1] came out at 45 ng/mL. In data set [2] (anti-viral activity, micromolar IC50 converted to ng/mL using molecular weight 452), this compound had an IC50av of 140 ng/mL (≈ 0.309 µM). For the same compound, the figures for the “% HCV RNA drop” value in data set [6] (VX-497 100 mg TID with INTRON A for 4 weeks) and in data set [6] (VX-497 300 mg TID with INTRON A for 4 weeks) were 53% and 50%, respectively. For the same compound, in data set [6] (with 3 MU IFN alpha 2b tiw, four weeks, baseline HCV RNA as covariate), the “reduction in viral load, 100 mg TID compared with 300 mg TID” value was “higher reduction in viral load”.

For `COc1c(C)c2c(c(O)c1C/C=C(\C)CCC(=O)OCCN1CCOCC1)C(=O)OC2` [mycophenolate mofetil], the “proportion of patients achieving significant antiviral effects, compared to PEGASYS and RBV” value in data set [4] (four-week analysis) is reported as “lower proportion of patients achieving significant antiviral effects”.

For `NC(=O)c1ncn([C@@H]2O[C@H](CO)[C@@H](O)[C@H]2O)n1` [Ribavirin, ribavirin], the IC50 came out at 976 ng/mL in data set [1] (read-out: IC50ap) and 12 µg/mL (≈ 49 µM) in data set [2]. Besides, the Cavg in data set [7] (setting [9]) was 3542 ng/mL; in data set [7] (setting [10]), 7083 ng/mL; in data set [7] (Ribavirin 600 mg BID, estimated from single dose kinetics (Glue) and accumulation factor (Khakoo), AUC(0-t)/dosing interval), 19000 ng/mL. Besides, the Cmin in data set [7] (setting [9]) is given as 740 ng/mL; in data set [7] (setting [10]), 1450 ng/mL; in data set [7] (Ribavirin 600 mg BID, estimated from literature kinetics), 2250 ng/mL. The “sustained response (SR)” value is given as “around 30%” in data set [8] (genotype 1 patients) and about 60% in data set [8] (non-genotype 1 patients). For the same compound, the hemolytic anemia result in data set [8] (MTD of ribavirin) was “significant hemolytic anemia”. Besides, the “HCV RNA drop” value was 30%^a, in data set [8] (genotype 1) and 60%^b in data set [8] (non-genotype 1). For the same compound, the “change in SR on dropping the ribavirin dose by one-half” value in data set [8] (to 600 mg daily, with IFN) is “no significant change in SR”.
